Measurements as given in patent publication US6737383B1, “Herbicidal oxadiazolidines” (priority 1999, dated 2004).

What was measured:
[1] = tested on: bedstraw; assay: Test B pre/postemergence bedstraw; assay type: in vivo, Galium aparine
Summary of the method: (§1)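 Herbicidal effect was estimated by eye on a ten-point control scale after plants spent twelve to sixteen days in a greenhouse following soil or foliar treatment. Foliar sprays targeted plants at one to four leaves; all doses were formulated in a non-phytotoxic solvent with surfactant.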

[2] = tested on: blackgrass; assay: Test B pre/postemergence blackgrass; assay type: in vivo, Alopecurus myosuroides
Summary of the method: as §1

[3] = tested on: surinam grass; assay: Test B pre/postemergence surinam grass; assay type: in vivo, Brachiaria decumbens
Summary of the method: as §1

[4] = tested on: bamyardgrass; assay: Test B flood test barnyardgrass; assay type: in vivo, Echinochloa crus-galli; settings: for Barnyardgrass plant response rating (0 to 10 scale, 0 is no effect, 10 is complete control): under heading Pre-emergence
Summary of the method: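 Flood test on plants grown to the 2-leaf stage; treated plants kept in greenhouse twelve to sixteen days, then visually rated against controls on a 0 (no effect) to 10 (complete control) scale.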

[5] = Postemergence, Rate 62 g/ha, scale 0 to 10, 0 is no effect, 10 is complete control
[6] = Postemergence, Rate 250 g/ha, scale 0 to 10, 0 no effect, 10 complete control
[7] = Preemergence, Rate 62 g/ha, scale 0 to 10, 0 is no effect, 10 is complete control
[8] = Preemergence, Rate 125 g/ha, scale 0 to 10 (0 no effect, 10 complete control)
[9] = Preemergence, Rate 250 g/ha, scale of 0 to 10 where 0 is no effect and 10 is complete control
[10] = Preemergence, Rate 500 g/ha, scale 0 (no effect) to 10 (complete control)
[11] = Rate 125 g/ha, Postemergence, scale 0 to 10, 0 no effect, 10 complete control
[12] = Rate 500 g/ha, Postemergence, 0 to 10 scale (0 no effect, 10 complete control)
[13] = Preemergence, Rate 62 g/ha, scale of 0 to 10 where 0 is no effect and 10 is complete control
[14] = Preemergence, Rate 125 g/ha, 0 is no effect, 10 is complete control
[15] = Preemergence, Rate 250 g/ha, scale 0 to 10, 0 is no effect, 10 is complete control
[16] = Preemergence, Rate 500 g/ha, scale of 0 to 10 where 0 is no effect and 10 is complete control
[17] = Rate 62 g/ha, Postemergence, scale of 0 to 10 where 0 is no effect and 10 is complete control
[18] = Rate 125 g/ha, Postemergence, scale 0 to 10
[19] = Rate 250 g/ha, Pre-emergence, flood-test species, scale 0 to 10, 0 is no effect, 10 is complete control
[20] = Postemergence, Rate 500 g/ha, scale of 0 to 10 where 0 is no effect and 10 is complete control
[21] = Postemergence, Rate 1000 g/ha, scale 0 to 10 (0 no effect, 10 complete control)
[22] = Rate 1000 g/ha, Preemergence, scale 0 to 10 (0 no effect, 10 complete control)
[23] = Postemergence, Rate 125 g/ha, scale of 0 to 10 where 0 is no effect and 10 is complete control
[24] = Postemergence, Rate 250 g/ha, scale of 0 to 10, 0 is no effect, 10 is complete control
[25] = Preemergence, Rate 125 g/ha, scale of 0 to 10 where 0 is no effect and 10 is complete control
[26] = Rate 125 g/ha, flood test species, visual evaluation after twelve to sixteen days
[27] = Preemergence, Rate 62 g/ha, scale 0 to 10 (0 no effect, 10 complete control)
[28] = Preemergence, Rate 500 g/ha, scale 0 to 10, 0 is no effect, 10 is complete control
[29] = Postemergence, Rate 125 g/ha, scale 0 to 10, 0 is no effect, 10 is complete control
[30] = Postemergence, Rate 250 g/ha, scale 0 to 10, 0 is no effect, 10 is complete control

Cc1ccccc1-n1c(=O)on(C(=O)N(c2cc(OC(C)C)c(Cl)cc2Cl)C(C)C)c1=O [Compound 42]
0: Bedstraw plant response rating [1, 5] | Bedstraw plant response rating [1, 6] | Plant response rating, Bedstraw [1, 7] | Plant response rating, Bedstraw [1, 8] | Plant response rating, Bedstraw [1, 9] | Bedstraw plant response rating [1, 10] | Bedstraw plant response rating [1, 11] | Blackgrass plant response rating [2, 5] | Blackgrass plant response rating [2, 6] | Plant response rating, Blackgrass [2, 7] | Plant response rating, Blackgrass [2, 8] | Plant response rating, Blackgrass [2, 9] | Blackgrass plant response rating [2, 10] | Blackgrass plant response rating [2, 11] | Blackgrass plant response rating [2, 12] | B. signalgrass plant response rating [3, 5] | B. signalgrass plant response rating [3, 6] | Plant response rating, B. signalgrass [3, 7] | Plant response rating, B. signalgrass [3, 8] | Plant response rating, B. signalgrass [3, 9] | B. signalgrass plant response rating [3, 10] | B. signalgrass plant response rating [3, 11] | B. signalgrass plant response rating [3, 12] | Barnyardgrass plant response rating [4, 5] | Barnyardgrass plant response rating ([4]; Rate 125 g/ha, Postemergence section (flood test species), scale 0 to 10, 0 no effect, 10 complete control) | Barnyardgrass plant response rating ([4]; Rate 500 g/ha, Postemergence section of Table B, 0 to 10 scale (0 no effect, 10 complete control)) | Barnyardgrass plant response rating ([4]; flood test, listed under Postemergence, Rate 250 g/ha, scale 0 to 10, 0 no effect, 10 complete control)

Cc1nc(C)c(-n2c(=O)on(C(=O)N(c3ccccc3)C(C)C)c2=O)s1 [Compound 197]
0: Bedstraw plant response rating [1, 13] | Bedstraw plant response rating (0 to 10 scale) [1, 14] | Bedstraw plant response rating [1, 15] | Plant response rating, Bedstraw [1, 16] | Bedstraw plant response rating [1, 17] | Bedstraw plant response rating [1, 18] | Plant response rating (0 to 10; 0 is no effect, 10 is complete control), Bedstraw ([1]; Rate 250 g/ha, Postemergence) | Blackgrass plant response rating [2, 13] | Blackgrass plant response rating (0 to 10 scale) [2, 14] | Blackgrass plant response rating [2, 15] | Plant response rating, Blackgrass [2, 16] | Blackgrass plant response rating [2, 17] | Blackgrass plant response rating [2, 18] | Plant response rating (0 to 10; 0 is no effect, 10 is complete control), Blackgrass ([2]; Rate 250 g/ha, Postemergence) | Blackgrass plant response rating ([2]; Rate 500 g/ha, Postemergence, scale 0 to 10) | B. signalgrass plant response rating [3, 13] | B. signalgrass plant response rating (0 to 10 scale) [3, 14] | B. signalgrass plant response rating [3, 15] | Plant response rating, B. signalgrass [3, 16] | B. signalgrass plant response rating [3, 17] | B. signalgrass plant response rating ([3]; Rate 125 g/ha, Postemergence, scale 0 (no effect) to 10 (complete control)) | Plant response rating, B. signalgrass ([3]; Rate 250 g/ha, Postemergence, scale 0 to 10, 0 is no effect, 10 is complete control) | B. signalgrass plant response rating ([3]; Rate 500 g/ha, Postemergence, scale 0 to 10, 0 no effect, 10 complete control) | Barnyardgrass plant response rating ([4]; Rate 62 g/ha, headed Pre-emergence (flood test species), scale 0 to 10 (0 no effect, 10 complete control)) | Barnyardgrass plant response rating ([4]; Rate 125 g/ha, Pre-emergence, flood test species, scale 0 to 10 where 0 is no effect and 10 is complete control) | Barnyardgrass plant response rating [4, 19] | Plant response rating, Barnyardgrass ([4]; Rate 500 g/ha, headed Pre-emergence (flood test species), scale 0 to 10 (0 no effect, 10 complete control))

C=CCn1c(=O)on(C(=O)N(c2c(C)cccc2C)C(C)COC)c1=O (stereo not shown) [Compound 600]
0: Plant response rating, Bedstraw [1, 20] | Bedstraw plant response rating [1, 21] | Bedstraw plant response rating (0 to 10 scale) ([1]; Preemergence, Rate 250 g/ha) | Bedstraw plant response rating [1, 16] | Plant response rating, Bedstraw [1, 22] | Plant response rating, Blackgrass [2, 23] | Blackgrass plant response rating [2, 24] | Plant response rating, Blackgrass [2, 20] | Blackgrass plant response rating [2, 21] | Blackgrass plant response rating [2, 25] | Blackgrass plant response rating (0 to 10 scale) ([2]; Preemergence, Rate 250 g/ha) | Blackgrass plant response rating [2, 16] | Plant response rating, Blackgrass [2, 22] | Plant response rating, B. signalgrass [3, 23] | B. signalgrass plant response rating [3, 24] | Plant response rating, B. signalgrass [3, 20] | B. signalgrass plant response rating [3, 21] | B. signalgrass plant response rating [3, 25] | B. signalgrass plant response rating (0 to 10 scale, 0 is no effect, 10 is complete control) ([3]; Preemergence, Rate 250 g/ha) | B. signalgrass plant response rating [3, 16] | Plant response rating, B. signalgrass [3, 22] | Barnyardgrass plant response rating ([4]; Pre-emergence, Rate 1000 g/ha, scale 0 to 10 (0 no effect, 10 complete control)) | Barnyardgrass plant response rating (0 to 10 scale, 0 is no effect, 10 is complete control) [4, 26] | Barnyardgrass plant response rating ([4]; Rate 250 g/ha, Pre-emergence (flood test species), scale 0 to 10, 0 is no effect, 10 is complete control) | Barnyardgrass plant response rating ([4]; Rate 500 g/ha, Pre-emergence section of Table B, 0 to 10 scale (0 no effect, 10 complete control))

Cc1nc(Cl)sc1C(C)n1c(=O)on(C(=O)N(c2ccccc2)C(C)C)c1=O (stereo not shown) [Compound 407]
0: Plant response rating, Bedstraw [1, 27] | Plant response rating, Bedstraw [1, 25] | Bedstraw plant response rating [1, 9] | Bedstraw plant response rating [1, 28] | Plant response rating, Blackgrass [2, 29] | Plant response rating, Blackgrass [2, 30] | Plant response rating, Blackgrass [2, 27] | Plant response rating, Blackgrass [2, 25] | Blackgrass plant response rating [2, 9] | Blackgrass plant response rating [2, 28] | Blackgrass plant response rating [2, 17] | Plant response rating, B. signalgrass [3, 29] | Plant response rating, B. signalgrass [3, 30] | B. signalgrass plant response rating [3, 20] | Plant response rating, B. signalgrass [3, 27] | Plant response rating, B. signalgrass [3, 25] | B. signalgrass plant response rating [3, 9] | B. signalgrass plant response rating [3, 16] | B. signalgrass plant response rating [3, 17] | Plant response rating, Barnyardgrass (0 to 10 scale, 0 is no effect, 10 is complete control) ([4]; Rate 62 g/ha, flood test species, Pre-emergence, visual evaluation after twelve to sixteen days) | Barnyardgrass plant response rating (0 to 10 scale, 0 is no effect, 10 is complete control) [4, 26] | Barnyardgrass plant response rating [4, 19] | Barnyardgrass plant response rating ([4]; Rate 500 g/ha, Pre-emergence, flood test species, scale 0 to 10 (0 no effect, 10 complete control))
7: Blackgrass plant response rating [2, 20]
